The values that follow come from patent US11535621B2, “Heterobicyclic amides as inhibitors of CD38” (Ribon Therapeutics, Inc., priority 2019, dated 2022).

One assay addresses Human CD38 (Homo sapiens (Human), UniProt P28907). Nature of the assay: CD38 enzyme assay. The following applies: 2 nM CD38, NAD+ substrate, absorbance at 405 nm. Type of assay: biochemical. Summed up:
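IC50 values come from fitting % inhibition against compound concentration with a 4-parameter logistic, or a 3-parameter fit with top/bottom fixed at 100/0 or Hill at 1. Inhibition is scaled between DMSO wells and positive-control wells treated with a quinolinone CD38 inhibitor.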

The next assay relates to B16-F10 tumor. Nature of the assay: Efficacy study in a B16F10 model (survival). Type of assay: in vivo, C57BL/6 mouse. The following applies: Example 7 300 mg/kg p.o. QD in combination with anti-mPD-L1 10 mg/kg i.p. QW; over vehicle or anti-mPD-L1 treated mice; p value <0.0001. The protocol:
B16-F10 tumor cells (ATCC, Cat #CRL-6475) were maintained in vitro as a monolayer culture in DMEM medium (Gibco, Cat #11995-040) supplemented with 10% heat inactivated fetal bovine serum (Biological Industries, Cat #04-002-1A), 100 U/mL penicillin and 100 µg/mL streptomycin (Hyclone, Cat #SV30010) at 37° C. in an atmosphere of 5% CO2 in air. The tumor cells were routinely subcultured twice weekly by trypsin-EDTA (Gibco, Cat #25200-072) treatment. The cells growing to a confluency around 70%-80% were harvested and counted for tumor inoculation. The cultured B16-F10 cells were harvested, re-suspended in base medium at a density of 2×10^7 cells/mL with viability>90%. 6-8 weeks of Female C57BL/6 mouse (Shanghai LingChang Biotech Co., LTD) was inoculated subcutaneously at the right flank with 1×10^6 in 0.05 mL base medium for tumor development. Tumors were calipered in two dimensions to monitor growth as the mean volume approached the desired range. Tumor volume (TV) was calculated using the formula: TV=0.5 a×b2 where a and b are the long and short diameters of the tumor.
Mice were assigned into 4 groups with 12 mice per group. […] The tumor sizes were measured three times per week during the treatment. Survival was monitored with tumor volume exceeding 2000 mm3 as endpoint. […]

Sequence of Human CD38 (P28907 whole entry): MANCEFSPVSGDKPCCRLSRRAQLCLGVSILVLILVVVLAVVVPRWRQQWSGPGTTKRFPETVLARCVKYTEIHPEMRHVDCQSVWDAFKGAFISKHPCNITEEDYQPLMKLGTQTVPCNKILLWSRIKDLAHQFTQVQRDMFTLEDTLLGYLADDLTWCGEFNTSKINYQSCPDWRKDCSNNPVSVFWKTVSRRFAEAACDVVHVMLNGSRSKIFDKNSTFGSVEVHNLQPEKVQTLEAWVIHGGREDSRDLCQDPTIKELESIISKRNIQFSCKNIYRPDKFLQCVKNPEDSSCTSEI

At Human CD38, `COCCO[C@H]1CC[C@H](NC(=O)c2nc(-n3ccnc3)nc3cc[nH]c23)CC1` [Example 7, 2-(1H-Imidazol-1-yl)-N-((1r,4r)-4-(2-methoxyethoxy)cyclohexyl)-5H-pyrrolo[3,2-d]pyrimidine-4-carboxamide] gave an IC50 of 10 to 100 nM. Besides, in the assay on B16-F10 tumor, the “percent survival of B16-F10 tumor bearing mice” value is reported as “significant survival benefit”.
